Values after ≈ are worked out from the molar mass of the structure shown. Bridge positions count the residues as written; N and C are the ends. Square brackets hold non-standard residues; d marks the D form. Peptide text beside a SMILES is read from it.
Experiments:
C. albicans = test: Candidacidal activity, minimum fungicidal concentration; type: cell-based; conditions: minimum fungicidal concentration = no viable colonies; 10^6 cells/ml in 10 mM phosphate buffer pH 7.4, 2 h at 30°C, plated 24 h; average of three independent experiments in duplicate
Method: Minimum fungicidal concentrations (MFC) of the peptides were determined by growing C. albicans aerobically in yeast extract-peptone-dextrose (YEPD) medium at 30°C. After 20 h, 0.5 ml from this suspension was subcultured for 2 h in 20 ml of YEPD broth to obtain a mid-log-phase culture. Cells were harvested by centrifugation, washed with 10 mM phosphate buffer (PB), pH 7.4, and resuspended in the same buffer, and the concentration was adjusted to 10^6 cells/ml. Aliquots of diluted cells were incubated with peptides in 100 µl volume at 30°C for 2 h. Cell suspensions were diluted and spread on YEPD agar plates and the plates were incubated for 24 h at 30°C. Colonies were counted, and the concentrations of the peptides at which no viable colonies were formed were taken as the Minimum fungicidal concentration (MFC). Cell survival was expressed as a percentage of the control. Percentage killing was calculated as [(colonies from control cells- colonies from treated cells)/colonies from control cells x 100].
The average of results from three independent experiments done with duplicate samples was taken for the calculation of MFC. In control experiments, cells were incubated with only buffer.

S. aureus = test: Effect of divalent cations on antibacterial activity at LC; type: cell-based; conditions: peptide at its LC, 1 mM CaCl2
Method: (§1) To determine the effect of salt on antibacterial activity, different concentrations of NaCl was included in the incubation buffer at their LC. Different concentrations of divalent cations Ca^2+ and Mg^2+ (as their chloride salts), were included in the buffer to determine their effect on activity at lethal concentration (LC) of the peptides. In control experiments, cells were incubated with only buffer. Data are presented as mean ± standard deviation computed for three independent replicates.
(§2) Figure 2 Effect of divalent cations on antibacterial activity. Mid-log phase bacteria (10^6 CFU/mL) were incubated with peptides at their LC in the absence or presence of the indicated concentrations of CaCl2 and MgCl2. The data are mean values of three independent experiments and the error bars represent standard deviation of the measurements. Standard deviation values ranged between 0.2-2.7.

Gram-negative bacteria = test: as above; type: cell-based; conditions: peptide at its LC; for Antibacterial activity in the presence of 1 mM Ca2+, Gram-negative bacteria: 1 mM CaCl2 in buffer
Method: as §1, §2

P. aeruginosa = test: as above; type: cell-based; conditions: peptide at its LC; for Loss in activity at 5 mM Mg2+ against P. aeruginosa: 5 mM MgCl2, as compared to HC-1(R)
Method: as §1, §2

S. aureus (ATCC 8530) = test: Antibacterial activity, lethal concentration (colony count); type: cell-based; conditions: lethal concentration = no viable colonies; 10^6 cfu/ml in 10 mM sodium phosphate buffer pH 7.4, 2 h at 37°C, plated 18 h; average of three independent experiments in duplicate, variation <5%
Method: (§3) Bacterial strains used were E. coli (MG 1655), S. aureus (ATCC 8530), and P. aeruginosa (NCTC 6751). The antibacterial activity of the peptides was examined in sterile 96 well plates at a ﬁnal volume of 100 µl as follows: Bacteria were grown in nutrient broth (Bacto Difco nutrient broth) to mid-log phase and diluted to 10^6 colony forming units (cfu)/ml in 10 mM sodium phosphate buffer (pH 7.4). Bacteria were incubated with different concentration of peptides for 2 h at 37°C and suitably diluted aliquots were spread on nutrient agar plates. After the plates were incubated at 37°C for 18 h, colonies formed were counted. Lethal concentration (LC) is the concentration of the peptides at which no viable colonies were formed. Cell survival is expressed as a percentage of the control. Percentage killing was calculated as: [(colonies from control cells- colonies from treated cells)/colonies from control cells x 100]. The LC determined was average of three independent experiments done in duplicate. In control experiments, cells were incubated with only buffer.

[1] = system: P. aeruginosa (NCTC 6751); test: as above; type: cell-based; conditions: lethal concentration = no viable colonies; 10^6 cfu/ml in 10 mM sodium phosphate buffer pH 7.4, 2 h at 37°C, plated 18 h; average of three independent experiments in duplicate, variation <5%
Method: as §3

E. coli (MG 1655) = test: as above; type: cell-based, Escherichia coli; conditions: lethal concentration = no viable colonies; 10^6 cfu/ml in 10 mM sodium phosphate buffer pH 7.4, 2 h at 37°C, plated 18 h; average of three independent experiments in duplicate, variation <5%
Method: as §3

bacteria = test: Antibacterial activity, comparison of peptides; type: cell-based; conditions: from LC values
Method: as §3

SMILES | MFC C. albicans (C. albicans) [µM] | Loss in activity against S. aureus at 1 mM Ca2+ (S. aureus) | Antibacterial activity in the presence of 1 mM Ca2+, Gram-negative bacteria (Gram-negative bacteria) | Loss in activity at 5 mM Mg2+ against P. aeruginosa (P. aeruginosa) | LC S. aureus (S. aureus (ATCC 8530)) [µM] | LC P. aeruginosa [1] [µM] | LC E. coli (E. coli (MG 1655)) [µM] | Antibacterial activity in the presence of 5 mM Ca2+, Gram-negative bacteria (Gram-negative bacteria; 5 mM CaCl2 in buffer) | Loss in activity at 5 mM Ca2+ against P. aeruginosa (P. aeruginosa; 5 mM CaCl2, as compared to [D]HC-1(R)) | Fold more active against bacteria as compared to HC-1(R) and [D]HC-1(R) (bacteria) [fold]
CC[C@H](C)[C@@H]1NC(=O)[C@H](CCCCN)NC(=O)[C@H]([C@@H](C)O)NC(=O)[C@H](Cc2ccccc2)NC(=O)[C@H]([C@@H](C)CC)NC(=O)[C@@H]2CCCN2C(=O)[C@@H](NC(=O)[C@H](C)N)CSSC[C@@H](C(=O)N[C@@H](CCCNC(=N)N)C(=O)O)NC(=O)[C@H](CCCCN)NC(=O)[C@H](C)NC(=O)[C@H](CCCNC(=N)N)NC(=O)CNC(=O)[C@H](CCCNC(=N)N)NC(=O)[C@H](Cc2ccc(O)cc2)NC(=O)[C@H]([C@@H](C)O)NC(=O)CNC(=O)[C@H](CCC(N)=O)NC1=O [HC-1(R)] (H-ACPIFTKIQGTYRGRAKCR-OH; disulfide 2-18) | 2.5 (≈ 5.42 µg/mL) | – | – | – | – | – | – | – | – | –
CC[C@@H](C)[C@H]1NC(=O)[C@H](CCCCN)NC(=O)[C@H]([C@@H](C)O)NC(=O)[C@H](Cc2ccccc2)NC(=O)[C@@H]([C@H](C)CC)NC(=O)[C@@H]2CCCN2C(=O)[C@@H](NC(=O)[C@H](C)N)CSSC[C@@H](C(=O)N[C@@H](CCCNC(=N)N)C(=O)O)NC(=O)[C@H](CCCCN)NC(=O)[C@H](C)NC(=O)[C@@H](CCCNC(=N)N)NC(=O)CNC(=O)[C@@H](CCCNC(=N)N)NC(=O)[C@H](Cc2ccc(O)cc2)NC(=O)[C@H]([C@@H](C)O)NC(=O)CNC(=O)[C@H](CCC(N)=O)NC1=O [[D]HC-1(R)] (H-ACP[dI]FTK[dI]QGTY[dR]G[dR]AKCR-OH; disulfide 2-18; N-terminus assumed) | 5 (≈ 10.8 µg/mL) | not | is not attenuated | more | 5 | 5 | 5 | – | – | –
CC[C@@H](C)[C@H]1NC(=O)[C@H](CCC(N)=O)NC(=O)[C@H](CCC(=O)O)NC(=O)[C@H](CCC(=O)O)NC(=O)[C@H](CCCCN)NC(=O)[C@@H]2CCCN2C(=O)[C@H](CC(C)C)NC(=O)[C@@H](NC(=O)[C@@H](N)CO)CSSC[C@@H](C(=O)N[C@H](CCCNC(=N)N)C(=O)N[C@H](CCCNC(=N)N)C(=O)N[C@@H](CCCCN)C(=O)N[C@@H](CCCNC(=N)N)C(=O)O)NC(=O)[C@H](CCCCN)NC(=O)[C@@H](CCCNC(=N)N)NC(=O)CNC(=O)[C@@H](CCCNC(=N)N)NC(=O)[C@H]([C@@H](C)O)NC(=O)[C@H](CO)NC(=O)[C@H](CCCCN)NC(=O)CNC1=O [[D]HC-3(R)] (H-SCLPKEEQ[dI]GKST[dR]G[dR]KC[dR][dR]KR-OH; disulfide 2-18; N-terminus assumed) | 2.5 (≈ 6.54 µg/mL) | – | loss in activity is observed | more | 2.5 | 2.5 | 2.5 | further attenuated | more pronounced | 2
